The numbers were not newly measured in patent US20250120913A1, “STABLE QUERCETIN NANOSUSPENSIONS” (Sirona Biosciences Inc., priority 2023, published 2025), which cites them from elsewhere.

The conditions of this data set: depending on the pH level.

`O=c1c(O)c(-c2ccc(O)c(O)c2)oc2cc(O)cc(O)c12` [Quercetin]: the aqueous solubility was 1.5 to 12.5 µg/mL.
